Reference: ChEMBL document CHEMBL3992518, “Peptide Macrocycle Inhibitor of Coagulation Factor XII with Subnanomolar Affinity and High Target Selectivity” (J Med Chem, 2017)
Activity calls are given as the source filed them. No cut-off for these calls is given here.

Columns and labels:
[1] = target: Coagulation factor X (Homo sapiens) (UniProt P00742); experiment: Inhibition of human factor 10a at 40 uM using fluorogenic substrate D-Phe-Pro-Arg-ANSNH-C4H9
[2] = target: Plasminogen (Homo sapiens) (UniProt P00747); experiment: Inhibition of human plasmin at 40 uM using fluorogenic substrate H-D-Val-Leu-Lys-AMC
[3] = target: Coagulation factor XI (Homo sapiens) (UniProt P03951); experiment: Inhibition of human factor 11a at 40 uM using fluorogenic substrate Boc-Phe-Ser-Arg-AMC
Homo sapiens [4] = organism: Homo sapiens; experiment: Selectivity for human beta-factor 12a over human factor 11a
Homo sapiens [5] = organism: Homo sapiens; experiment: Selectivity for human beta-factor 12a over human factor 10a
Plasma [6] = experiment: Anticoagulant activity in human plasma assessed as concentration required to double activated partial thromboplastin time by coagulation analyser; type: functional
Homo sapiens [7] = organism: Homo sapiens; experiment: Selectivity for human beta-factor 12a over human thrombin
[8] = target: Tissue-type plasminogen activator (Homo sapiens) (UniProt P00750); experiment: Inhibition of human tPa at 40 uM using fluorogenic substrate Z-Gly-Gly-Arg-AMC
Homo sapiens [9] = organism: Homo sapiens; experiment: Selectivity for human beta-factor 12a over human uPa
[10] = Half life in human citrated plasma at 10 uM by mass spectrophotometric analysis; type: ADME, cell-free
[11] = target: T1, Coagulation factor VII (Homo sapiens) (UniProt P08709); experiment: Inhibition of human factor 7a at 40 uM using fluorogenic substrate D-Phe-Pro-Arg-ANSNH-C4H9
T1 sequence (whole entry): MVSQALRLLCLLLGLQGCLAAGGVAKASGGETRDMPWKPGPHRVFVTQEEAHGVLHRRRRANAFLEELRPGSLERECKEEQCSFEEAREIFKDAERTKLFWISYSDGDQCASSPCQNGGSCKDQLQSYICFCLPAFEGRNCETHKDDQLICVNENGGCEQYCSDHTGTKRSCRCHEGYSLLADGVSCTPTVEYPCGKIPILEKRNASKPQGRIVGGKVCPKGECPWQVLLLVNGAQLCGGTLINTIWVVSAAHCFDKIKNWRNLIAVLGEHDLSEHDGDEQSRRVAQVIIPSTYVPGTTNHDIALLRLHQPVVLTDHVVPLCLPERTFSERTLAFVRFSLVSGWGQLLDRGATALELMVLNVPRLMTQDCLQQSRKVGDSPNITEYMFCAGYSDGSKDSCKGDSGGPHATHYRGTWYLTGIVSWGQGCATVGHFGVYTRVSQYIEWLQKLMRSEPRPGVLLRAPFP

[12] = Inhibition of human trypsin using fluorogenic substrate Z-Gly-Gly-Arg-AMC
Homo sapiens [13] = organism: Homo sapiens; experiment: Selectivity for human beta factor 12a over human plasma kallikrein
Homo sapiens [14] = organism: Homo sapiens; experiment: Selectivity for human beta-factor 12a over human factor 7a
Homo sapiens [15] = organism: Homo sapiens; experiment: Selectivity for human beta-factor 12a over human trypsin
Plasma kallikrein [16] = target: T2, Plasma kallikrein (Homo sapiens, UniProt P03952); experiment: Inhibition of human plasma kallikrein at 40 uM using fluorogenic substrate Z-Phe-Arg-AMC
[17] = target: Prothrombin (Homo sapiens) (UniProt P00734); experiment: Inhibition of human thrombin at 40 uM using fluorogenic substrate Z-Gly-Gly-Arg-AMC
Plasma [18] = experiment: Anticoagulant activity in human plasma assessed as change in prothrombin time up to 40 uM by coagulation analyser; type: functional, cell-free
[19] = target: Urokinase-type plasminogen activator (Homo sapiens) (UniProt P00749); experiment: Inhibition of human uPa at 40 uM using fluorogenic substrate Z-Gly-Gly-Arg-AMC
Coagulation factor XII = target: T3, Coagulation factor XII (Homo sapiens, UniProt P00748); experiment: Inhibition of human beta factor 12a using fluorogenic substrate Boc-Gln-Gly-Arg-AMC preincubated for 10 mins followed by addition of substrate measured every min for 30 mins
T3 sequence (P00748 whole entry): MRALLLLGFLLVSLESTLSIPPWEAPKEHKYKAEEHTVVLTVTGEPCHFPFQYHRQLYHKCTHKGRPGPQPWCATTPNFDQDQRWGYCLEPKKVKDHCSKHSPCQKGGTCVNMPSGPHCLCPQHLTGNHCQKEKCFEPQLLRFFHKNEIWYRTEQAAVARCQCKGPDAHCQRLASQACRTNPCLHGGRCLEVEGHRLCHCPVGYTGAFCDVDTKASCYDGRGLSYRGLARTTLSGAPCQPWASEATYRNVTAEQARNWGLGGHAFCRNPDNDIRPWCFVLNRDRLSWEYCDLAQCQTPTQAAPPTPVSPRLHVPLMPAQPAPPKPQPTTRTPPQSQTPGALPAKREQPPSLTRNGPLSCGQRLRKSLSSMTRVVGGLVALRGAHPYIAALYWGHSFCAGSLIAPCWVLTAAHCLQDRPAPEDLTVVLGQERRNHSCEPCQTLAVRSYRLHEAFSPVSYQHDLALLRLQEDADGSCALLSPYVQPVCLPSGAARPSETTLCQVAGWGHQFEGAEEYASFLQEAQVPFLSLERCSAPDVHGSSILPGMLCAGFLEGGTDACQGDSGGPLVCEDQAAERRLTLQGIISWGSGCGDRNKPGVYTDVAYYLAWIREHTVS

Homo sapiens [20] = organism: Homo sapiens; experiment: Selectivity for human beta-factor 12a over human tPa
Homo sapiens [21] = organism: Homo sapiens; experiment: Selectivity for human beta-factor 12a over human plasmin
Homo sapiens [22] = organism: Homo sapiens; experiment: Inhibition of human trypsin at 40 uM using fluorogenic substrate Z-Gly-Gly-Arg-AMC
Plasma kallikrein [23] = target: T2, Plasma kallikrein; experiment: Inhibition of human plasma kallikrein using fluorogenic substrate Z-Phe-Arg-AMC

T2 sequence (P03952 20-390 limits assumed): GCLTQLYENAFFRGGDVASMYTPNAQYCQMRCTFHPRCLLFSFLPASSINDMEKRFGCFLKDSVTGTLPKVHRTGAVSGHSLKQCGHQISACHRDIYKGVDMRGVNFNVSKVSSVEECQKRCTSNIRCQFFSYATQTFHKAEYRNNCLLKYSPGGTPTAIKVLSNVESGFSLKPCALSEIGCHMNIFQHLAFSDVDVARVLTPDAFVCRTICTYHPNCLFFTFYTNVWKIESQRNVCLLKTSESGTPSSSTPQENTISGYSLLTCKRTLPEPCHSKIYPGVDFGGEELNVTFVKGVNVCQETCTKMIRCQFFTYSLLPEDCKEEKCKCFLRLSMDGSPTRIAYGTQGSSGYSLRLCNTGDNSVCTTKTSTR
T2 sequence (P03952 391-638 limits assumed): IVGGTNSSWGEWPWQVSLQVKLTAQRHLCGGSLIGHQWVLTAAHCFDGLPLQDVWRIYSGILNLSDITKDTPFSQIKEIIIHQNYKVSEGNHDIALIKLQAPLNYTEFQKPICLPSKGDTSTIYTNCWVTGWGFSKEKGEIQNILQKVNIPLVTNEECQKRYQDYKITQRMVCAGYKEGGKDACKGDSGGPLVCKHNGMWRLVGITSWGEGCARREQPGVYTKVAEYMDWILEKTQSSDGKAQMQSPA
Coagulation factor XI (Homo sapiens), sequence (P03951 19-387 limits assumed): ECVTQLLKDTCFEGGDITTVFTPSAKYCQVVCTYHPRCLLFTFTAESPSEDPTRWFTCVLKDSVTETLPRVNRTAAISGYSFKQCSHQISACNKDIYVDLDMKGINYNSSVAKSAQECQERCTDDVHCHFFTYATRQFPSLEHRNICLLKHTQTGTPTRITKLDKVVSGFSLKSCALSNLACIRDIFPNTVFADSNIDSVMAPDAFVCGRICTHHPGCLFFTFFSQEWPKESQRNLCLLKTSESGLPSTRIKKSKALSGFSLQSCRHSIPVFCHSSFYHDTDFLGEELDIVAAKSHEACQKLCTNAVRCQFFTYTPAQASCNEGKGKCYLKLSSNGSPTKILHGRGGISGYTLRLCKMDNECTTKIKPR
Coagulation factor XI (Homo sapiens), sequence (P03951 388-625 limits assumed): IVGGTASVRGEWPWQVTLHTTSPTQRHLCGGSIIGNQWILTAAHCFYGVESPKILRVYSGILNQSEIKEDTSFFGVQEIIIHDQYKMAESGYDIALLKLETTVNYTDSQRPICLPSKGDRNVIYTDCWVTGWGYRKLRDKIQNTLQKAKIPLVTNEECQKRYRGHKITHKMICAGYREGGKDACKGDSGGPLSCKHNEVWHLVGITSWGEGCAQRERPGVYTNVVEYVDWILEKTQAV
Plasminogen (Homo sapiens), sequence (P00747 97-580 limits assumed): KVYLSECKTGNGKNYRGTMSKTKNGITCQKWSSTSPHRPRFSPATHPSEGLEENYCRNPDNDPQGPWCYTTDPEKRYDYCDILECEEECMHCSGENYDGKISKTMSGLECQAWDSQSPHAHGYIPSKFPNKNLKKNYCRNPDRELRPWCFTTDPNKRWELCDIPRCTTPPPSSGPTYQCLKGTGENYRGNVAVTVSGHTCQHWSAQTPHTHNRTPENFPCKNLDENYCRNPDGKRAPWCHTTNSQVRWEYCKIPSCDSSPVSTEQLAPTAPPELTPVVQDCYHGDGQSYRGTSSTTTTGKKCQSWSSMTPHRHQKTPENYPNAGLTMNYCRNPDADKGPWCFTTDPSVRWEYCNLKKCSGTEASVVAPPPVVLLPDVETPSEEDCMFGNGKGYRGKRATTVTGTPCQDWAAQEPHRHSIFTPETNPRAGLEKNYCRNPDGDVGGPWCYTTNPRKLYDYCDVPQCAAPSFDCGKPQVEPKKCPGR
Plasminogen (Homo sapiens), sequence (P00747 581-810 limits assumed): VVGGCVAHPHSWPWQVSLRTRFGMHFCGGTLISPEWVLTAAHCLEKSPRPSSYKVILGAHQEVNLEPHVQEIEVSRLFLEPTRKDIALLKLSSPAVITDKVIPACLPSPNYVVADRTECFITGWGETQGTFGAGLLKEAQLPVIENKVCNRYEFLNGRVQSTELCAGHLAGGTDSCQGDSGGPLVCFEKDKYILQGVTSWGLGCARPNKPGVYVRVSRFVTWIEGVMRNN
Coagulation factor X (Homo sapiens), sequence (P00742 41-179 limits assumed): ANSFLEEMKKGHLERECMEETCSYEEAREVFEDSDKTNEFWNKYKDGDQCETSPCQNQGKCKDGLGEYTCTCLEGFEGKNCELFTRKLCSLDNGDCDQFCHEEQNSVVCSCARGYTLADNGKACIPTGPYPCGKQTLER
Coagulation factor X (Homo sapiens), sequence (P00742 235-488 limits assumed): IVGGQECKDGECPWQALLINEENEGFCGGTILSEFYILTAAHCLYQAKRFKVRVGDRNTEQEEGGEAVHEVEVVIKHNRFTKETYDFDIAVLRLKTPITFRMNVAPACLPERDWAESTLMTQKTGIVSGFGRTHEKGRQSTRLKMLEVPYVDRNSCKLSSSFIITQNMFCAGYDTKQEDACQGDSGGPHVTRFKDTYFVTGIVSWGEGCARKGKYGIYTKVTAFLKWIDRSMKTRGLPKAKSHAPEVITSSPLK
Tissue-type plasminogen activator (Homo sapiens), sequence (P00750 36-562 limits assumed): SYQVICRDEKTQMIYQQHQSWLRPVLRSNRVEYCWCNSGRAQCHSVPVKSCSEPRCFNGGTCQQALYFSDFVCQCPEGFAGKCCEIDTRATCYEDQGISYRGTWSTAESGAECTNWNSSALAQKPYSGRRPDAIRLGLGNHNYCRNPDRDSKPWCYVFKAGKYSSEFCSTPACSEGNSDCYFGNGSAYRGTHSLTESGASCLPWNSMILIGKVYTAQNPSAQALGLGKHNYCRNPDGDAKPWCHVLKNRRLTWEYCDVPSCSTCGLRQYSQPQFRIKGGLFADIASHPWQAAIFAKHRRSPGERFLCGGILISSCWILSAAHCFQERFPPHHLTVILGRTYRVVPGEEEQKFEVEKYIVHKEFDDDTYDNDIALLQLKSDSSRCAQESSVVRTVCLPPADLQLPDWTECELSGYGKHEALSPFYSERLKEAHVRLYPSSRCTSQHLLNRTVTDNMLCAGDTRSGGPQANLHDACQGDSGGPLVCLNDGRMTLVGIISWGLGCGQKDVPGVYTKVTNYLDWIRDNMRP

CC(C)C[C@@H]1NC(=O)[C@H](CCC(N)=O)NC(=O)[C@H](CCCNC(=N)N)NC(=O)[C@@H]2CSCCC(=O)N3CN(CN(C3)C(=O)CCSC[C@H](NC(=O)[C@@H](N)CCNC(=N)N)C(=O)N[C@@H](Cc3ccc(F)cc3)C(=O)N[C@@H](CCCNC(=N)N)C(=O)N[C@@H](CC(C)C)C(=O)N3CCC[C@H]3C(=O)N2)C(=O)CCSC[C@@H](C(=O)N[C@@H](CCCNC(=N)N)C(=O)O)NC(=O)[C@H](CCCNC(=N)N)NC1=O gave an inhibition [1] of less than 20%, an inhibition [2] of less than 20% and an inhibition [3] of less than 20%. For the same compound, the Selectivity ratio (Homo sapiens [4]) was 27000, the Selectivity ratio (Homo sapiens [5]) was 27000 and the 2aPTT (Plasma [6]) was 2 µM. The Activity (Plasma [6]) was “Dose-dependent effect”, the Selectivity ratio (Homo sapiens [7]) was 27000 and the inhibition [8] was less than 20%. For the same compound, the Selectivity ratio (Homo sapiens [9]) was 27000, the half-life at 10 µM [10] was 16 h and the inhibition [11] was less than 20%. For the same compound, the Ki [12] was 1300 nM, the Selectivity ratio (Homo sapiens [13]) was 27000 and the Selectivity ratio (Homo sapiens [14]) was 27000. The Selectivity ratio (Homo sapiens [15]) was 800, the inhibition (Plasma kallikrein [16]) was greater than 50% and the inhibition [17] was less than 20%. For the same compound, the Activity (Plasma [18]) was “inactive”, the inhibition [19] was less than 20% and the Ki (Coagulation factor XII) was 1.63 nM. It also gave a Selectivity ratio (Homo sapiens [20]) of 27000, a Selectivity ratio (Homo sapiens [21]) of 27000 and an inhibition (Homo sapiens [22]) greater than 50%. The Ki (Plasma kallikrein [23]) was 45100 nM.
